Experimental data: US8410056B2, “Pro-oxidant anti-cancer compounds” (priority 2006, dated 2013)
Entries after “also recorded” stand apart in the source; their conditions may differ.

How the values were obtained:
cancer cells = test: IC50, killing of cancer cells in vitro; type: cell-based; conditions: approximately
From the text: FIG. 9. […] IC50: Concentration in micromolar that is needed of a particular drug to induce 50% killing of cancer cells in vitro. −log Kd: inverse log of the particular drug's binding affinity.
In FIG. 9, the inventors analysed the correlation between the binding affinities of the vitamin E analogues for the ubiquinone site and their biological activity in causing apoptosis of cancer cells. The result indicates a direct relationship between the binding affinity to the site and their ability to kill cancer cells. The differences observed between the docking and the list of results reflects the biological accessibility of the compounds reaching the complex II target site. Thus, the IC50 reflects not only the ability of the analogues to bind to the site, but also their ability to enter across the cell membrane and gain access to the mitochondrial matrix. […] The best comparison would be made by comparing the Autodock results with an enzyme assay using purified complex II kits commercially available (MS201 COMPLEX II IMMUNOCAPTURE KIT MitoScience LLC, 1850 Millrace Drive, Suite 3A, Eugene, Oreg. 97403, USA, http://www.mitosciences.com).

MDA-MB-453 cells = test: Apoptosis, annexin V-FITC method; type: cell-based, human
Description: Cell culture and treatment. […] Cells were cultured in DMEM with 10% FCS, 100 U/ml penicillin and 100 μg/ml streptomycin at 37° C. in a humidified atmosphere of 5% CO2. Mitochondrial complex I-deficient (Breen and Scheffler 1979; DeFrancesco et al 1976; Scheffler et al 2004) and complex II-deficient cells (Albayrak et al 2003; Oostveen et al 1995) were grown in DMEM with 10% FCS, […] glucose and non-essential amino acids.
At approximately 70% confluency, cells were treated with up to 50 μM α-TOS (Sigma), up to 100 μM 3-BP (Aldrich) or 30 ng/ml of human recombinant tumor necrosis factor-related apoptosis—inducing ligand (TRAIL) (Weber et al, 2002) under normoxic or hypoxic conditions. For hypoxia, cells overlaid with nitrogen-purged medium were placed in a hypoxic chamber pre-flushed extensively with nitrogen. The hypoxic chamber with cells was then placed in the incubator as required. α-TOS was dissolved in ethanol and used such that the final ethanol concentration in cell culture medium was <0.1% (v/v). Stock solutions of 3-BP were prepared in PBS prior to use.
Apoptosis assessment. Apoptosis was quantified using the annexin V-FITC method, which detects phosphatidyl serine externalized in the early phases of apoptosis (Boersma et al, 1996). Briefly, cells were plated at 10^5 per well in 24-well plates and, after an overnight recuperation, treated with α-TOS or 3-BP alone or in combination. Floating and attached cells were harvested, washed with PBS, resuspended in 0.2 ml binding buffer (10 mM Hepes, 140 mM NaCl, 5 mM CaCl2, pH 7.4), incubated for 30 min at 4° C. with 2 μl annexin V-FITC (PharMingen), supplemented with 200 μl of 50 μg/ml propidium iodide (PI; Sigma), and analyzed by flow cytometry (FACScalibur, Becton Dickinson) using channel 1 for annexin V-FITC binding and channel 2 for PI staining. Cell death was quantified as the percentage of cells with increased annexin V binding and PI staining.
RNA interference (RNAi). Short-interfering RNA (siRNA) oligonucleotides with 3′-dTdT overhangs specific for Akt1 were synthesized by Qiagen. The sequences are as follows: target sequence: […] (SEQ ID NO 2); siRNA duplex sequences: sense—r([…] )dTdT (SEQ ID NO 3), antisense—r([…] )dTdT (SEQ ID NO 4). The transfection of cultured MDA-MB-453 cells with siRNA was performed using OligofectAmine (Invitrogen) and OptiMEM according to the manufacturer's instructions. Briefly, cells were allowed to reach 50% confluency and supplemented with […] siRNA pre-incubated with OligofectAmine and overlayed with OptiMEM. Cells were washed 24 h later with PBS, overlayed with complete DMEM and treated as required after an additional 24 h.
Transfection of MDA-MB-453 cells with siRNAs was performed using OligofectAmine and OptiMEM. Briefly, cells were allowed to reach ˜50% confluency and supplemented with 60 pmol/l siRNA pre-incubated with OligofectAmine and overlayed with OptiMEM. Cells were washed 24 h later with PBS, overlaid with complete DMEM, cultured for an additional 24 h, 48 h and transgene expression confirmed using Western blotting before they were used for further experiments.

mesothelioma = test: Clinical study, patient with mesothelioma; type: in vivo
Description: α-TOS was used to treat mesothelioma in a human cancer patient. […] The blood plasma levels were monitored and levels of α-TOS in the plasma attained 50 μM over prolonged periods during continual application. This is more than sufficient to kill the cancer cells based on in vitro analysis.
The patient was originally receiving high dose opiate medications, neuropathic pain medications, home oxygen, and was predicted to have a life expectancy of 6-8 weeks. After treatment with α-TOS, the patient no longer required analgesia or oxygen.
In December 2005, the patient started receiving transdermal delivery of α-TOS, prepared in a base cream and solubilised with dimethyl sulfoxide (DMSO).
In April 2007, therapy with α-TOS was commenced using a modified formulation mixed in a lipodermal cream (see below). […] In addition, a palpable lesion was visible growing out between the ribs and the right anterior chest wall. The patient was in very poor condition with a low ECOG- no CT scan could be performed at the time of commencing the α-TOS treatment because the patient was too moribund.
α-TOS formulation: 500 gms of Lipoderm cream plus 60 gms α-TOS compounded by the hospital pharmacy. About 30 gms of compounded mix was administered every few days, and the upper body was wrapped in plastic film (“saran wrap”) to improve absorption.

[1] = tested on: Jurkat, HBT11, MCF7, MCF7-C3; conditions: Birringer et al, cited from earlier work
[2] = tested on: erbB2 highly positive breast carcinomas
Description: (A) Nude mice were inoculated with MCF-7 cells and, after tumors became established, the animals were treated once every 3 d with 10 μmoles per mouse of α-TOS dissolved in DMSO or with DMSO alone, by intraperitoneal (i.p.) injection. Tumor size was measured using calipers and was correlated to the size of the carcinomas at the onset of the therapy. Four animals were used in each group. The results shown are mean values±S.E. The symbol ‘*’ denotes significant difference (p<0.05). (B) Female FVB/N erbB2 mice with palpable tumors (see General Materials and Methods) received either 10 μmoles α-TOS solubilized in corn oil/4% ethanol (n=11) or the corn oil/4% ethanol alone (control, n=9) by i.p. injection once every 3 d, or 0.2 μmoles 3-BP (n=8) in PBS at the tumor site every day. Tumor size was recorded using calipers. Two independent experiments were conducted. Results are represented as mean values±S.E. The symbol ‘*’ denotes significant difference (p<0.05) in the analysis of variance between the 3-BP and α-TOS curves.
Mouse tumor experiments. Nude mice were inoculated subcutaneously with MCF-7 cells (2×10^6 cells/mouse). After tumors developed (diameter of 3-7 mm), mice were injected intraperitoneally with 10 μmoles α-TOS in DMSO every 3 days. Control mice were injected with an equal volume (100 μl) of DMSO only. Tumor size was estimated by measuring with digital calipers. A colony of transgenic FVB/N2O2 rat c-neu mice carrying the rat HER-2/neu protooncogene driven by the MMTV promoter on the H-2^q FVB/N background (Guy et al, 1992) was established at the Griffith University Animal Facility and maintained under strict inbreeding conditions. The presence of the transgene was routinely confirmed by PCR. Approximately 70% of the female mice developed spontaneous mammary carcinomas with a mean latency time of 10 months. Female transgenic FVB/N2O2 rat c-neu mice bearing progressively growing tumors with a mean diameter of 10±5 mm were randomly assigned to control or treatment groups. Tumor size was measured using digital calipers. […]

Cc1c(C)c2c(c(C)c1OC(=O)CCC(=O)O)CC[C@@](C)(CCC[C@H](C)CCC[C@H](C)CCCC(C)C)O2 [Compound 1, α-tocopheryl succinate]
IC50 (cancer cells): 40 to 50 µM
apoptosis (MDA-MB-453 cells; MDA-MB-453 (erbB2-high), normoxia or hypoxia): sensitive to apoptosis induced by α-TOS under both normoxia and hypoxia
apoptosis after Akt1 knock-down (MDA-MB-453 cells; pre-treated with 60 pM Akt1 siRNA for 24 h, then drug 24 h): sensitizes
clinical effect (mesothelioma; human patient, α-TOS therapy): worked very effectively; also recorded: shrunk dramatically
side effects (mesothelioma; human patient, α-TOS therapy): non-toxic with no observable side-effects and was well tolerated; also recorded: no obvious side-effects from the α-TOS therapy apart from a mild itch
levels of α-TOS in the plasma (mesothelioma; human, transdermal, continual application, over prolonged periods): 50 µM
clinical response, DMSO base cream (mesothelioma; transdermal α-TOS in base cream solubilised with DMSO): showed clinical response
side effects, DMSO base cream (mesothelioma; transdermal α-TOS in base cream solubilised with DMSO, about 8 weeks): major skin reaction problems secondary to DMSO
pro-apoptotic activity ([1]; compared with α-TOS and isomers): highest apoptogenic activity
IC50 ([1]; Jurkat, HBT11, MCF7, MCF7-C3, 2003): 43 µM
reduction in the average size of tumors ([2]; about, over the 2 weeks of treatment, 10 μmoles i.p. every 3 d): 30-40%
tumor growth ([2]; α-TOS 10 μmoles i.p. every 3 d, 3-BP 0.2 μmoles daily intratumorally): statistically more effective (p<0.05 by analysis of covariance) than 3-BP
